# Where two headings read alike, the source gives them in different places.
# Legend:
# [1] = molecular target: T1, 45 kDa guinea-pig lung membrane protein (Cavia porcellus, UniProt Q2NNR5); experiment: [125I]Azido-LTD4 photoaffinity labelling of the 45 kDa guinea-pig lung membrane protein (SDS-PAGE, autoradiography, laser densitometry); assay type: binding; conditions: for IC50: laser densitometry, leukotrienes and antagonists, read-out: IC50 for inhibition of photolabelling of the 45 kDa protein
# T1 construct: Guinea pigs (male; from tissue; host or cells: guinea-pig lung (primarily parenchyma), sucrose-gradient membrane fraction
# T1 sequence (Q2NNR5 1-340): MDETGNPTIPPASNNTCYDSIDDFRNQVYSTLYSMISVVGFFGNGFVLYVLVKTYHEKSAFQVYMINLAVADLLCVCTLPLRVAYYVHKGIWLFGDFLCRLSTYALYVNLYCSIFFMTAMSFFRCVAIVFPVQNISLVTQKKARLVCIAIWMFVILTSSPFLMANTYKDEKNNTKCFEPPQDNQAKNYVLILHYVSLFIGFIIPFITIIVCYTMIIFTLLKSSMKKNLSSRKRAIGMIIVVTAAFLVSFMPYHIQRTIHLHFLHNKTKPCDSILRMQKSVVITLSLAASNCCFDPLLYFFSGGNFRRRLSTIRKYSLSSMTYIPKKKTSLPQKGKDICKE
# Protocol: (§1) Guinea pigs (male; 350 g) were sacrificed by cervical dislocation and the lung tissues removed. All subsequent procedures were performed either on ice or at 4° C. Connective tissue, trachea, large blood vessels and major airways were dissected away and the remaining lung tissue (primarily parenchyma) was finely minced prior to homogenisation in 10 vol of 10 mM HEPES/KOH pH 7.4, containing 0.25 M sucrose, 2 mM EDTA, 2 mM phenylmethylsulphonyl fluoride, 10 μg/ml pepstatin, 10 μg/ml leupeptin and 10 μM E-64, using 5 s bursts of a polytron (Brinkman Instruments). The homogenate was subjected to differential centrifugation at 1000×g for 10 min, 10,000×g for 10 min and 100,000×g for 40 min. The resulting 100,000×g pellets were resuspended in 10 mM HEPES/KOH pH 7.4, containing 10% (w/v) sucrose, at a final protein concentration of 1-2 mg/ml. This tissue suspension was carefully layered over 10 mM HEPES/KOH pH 7.4 containing 40% (w/v) sucrose in a 3:2 (v/v) ratio. The discontinuous sucrose gradient was centrifuged at 83,000×g for 60 min. The membrane fraction located at the interface of the sucrose gradient layers was recovered, diluted 10-fold in 10 mM HEPES/KOH pH 7.4 and further centrifuged at 150,000×g for 40 min. The final membrane pellets were resuspended in 10 mM HEPES/KOH pH 7.4 at a protein concentration of 2-4 mg/ml and stored at […].
# (§2) Samples were incubated for 60 min at room temperature. […] The residual samples were then transferred to 25 mm diameter cluster plate well for photolysis. The cluster plates were placed on aluminium blocks, pre-cooled to -20° C., and illuminated from above with a 40 W ultraviolet light source (Phillips, γmax =350 nm) at a distance of 10 cm for 2 min. The guinea-pig lung membranes were then recovered from 1 ml sample aliquots by centrifugation at 150,000×g for 15 min at 4° C. and solubilized in sodium dodecyl sulphate polyacrylamide gel electrophoresis (SDS-PAGE) sample buffer prior to resolution of the proteins by SDS-PAGE (Laemmli, 1970). Protein bands were visualized by Coomassie Blue staining while radiolabelled proteins were identified by autoradiography of dried gels and quantified by laser densitometry (Molecular Dynamics, ImageQuant).
# (§3) FIG. 4. […] Radiolabelled proteins were resolved by SDS-PAGE and visualized by autoradiography. […] In addition, photoaffinity labelled membranes were subjected to immunoprecipitation with RAGpAlb (Lane C) and non-immune rabbit serum (Lane D), as described in the Methods. The migration of molecular weight standards is indicated on the left. FIGS. 5(A)-5(C). […] Results are expressed as percentage of maximum specific binding as a function of CaCl2 concentration. […] Only the results for total binding are shown.
# (§4) Results are expressed as percentage of maximum specific binding as a function of nucleotide concentration. […] Only the results for total binding are shown.
# (§5) Results are expressed as percentage of maximum specific binding as a function of cation concentration. […] Only the results for total binding are shown.
# [2] = molecular target: T2, LTD4 receptor (guinea-pig lung membranes) (Cavia porcellus, UniProt Q2NNR5); conditions: for effect of divalent cation on [125I]Azido-LTD4 specific binding: CaCl2 at concentrations above 30 mM, MgCl2 instead of CaCl2
# T2 sequence (Q2NNR5 1-340): T1 sequence (Q2NNR5 1-340)
# Protocol: as §1
# Filters were then washed with 16 ml of 10 mM HEPES/KOH, pH 7.4 containing 0.01% (w/v) bovine serum albumin, at 4° C.
# as §3, §4, §5
# [3] = molecular target: T2, LTD4 receptor (guinea-pig lung membranes); experiment: biochemical; conditions: for effect of divalent cation on [3H]LTD4 specific binding: CaCl2 at concentrations above 30 mM, MgCl2 instead of CaCl2
# Protocol: as §1
# Competition experiments were analysed and IC50 values derived using the Kinetic, EBDA, Ligand, […] program from Biosoft (McPherson, 1985).
# as §3, §4, §5
# [4] = test system: 45 kDa guinea-pig lung membrane protein; experiment: [125I]Azido-LTD4 photoaffinity labelling of the 45 kDa guinea-pig lung membrane protein (SDS-PAGE, autoradiography, laser densitometry); assay type: binding; conditions: for effect of divalent cation on photolabelling of the 45 kDa protein: CaCl2, same concentration range, MgCl2 instead of CaCl2
# Protocol: as §1, §2, §3, §4, §5
# [5] = molecular target: T2, LTD4 receptor (guinea-pig lung membranes); experiment: Rates of association and dissociation of radioligand binding to guinea-pig lung membranes; set-up: Guinea pigs (male; from tissue; host or cells: guinea-pig lung (primarily parenchyma), sucrose-gradient membrane fraction; conditions: identical experimental conditions; data not shown
# Protocol: FIG. 3. […] Aliquots (500 μl) were removed and filtered at the required time intervals.
# [6] = molecular target: T2, LTD4 receptor (guinea-pig lung membranes); experiment: Saturation binding to guinea-pig lung membranes, Scatchard plot analysis; set-up: Guinea pigs (male; 350 g) were sacrificed by cervical dislocation and the lung tissues removed; from tissue; host or cells: guinea-pig lung (primarily parenchyma), sucrose-gradient membrane fraction; conditions: Scatchard, single site
compound,measurement,setting,value
CN(C)C(=O)CCSC(SCCC(=O)O)c1cccc(/C=C/c2ccc3ccc(Cl)cc3n2)c1 (centres unmarked) [MK-571],IC50,[1],1 nM
same,IC50,"[2]; read-out: IC50 for competition with [125I]Azido-LTD4 specific binding, leukotrienes and antagonists, LTC4 with 50 mM serine-borate",3e-06 mM
same,IC50,[3],2e-06 mM
[Cl-].[Cl-].[Mg+2] [MgCl2],effect of divalent cation on photolabelling of the 45 kDa protein,[4],Identical results
same,effect of divalent cation on [125I]Azido-LTD4 specific binding,[2],Identical results
same,effect of divalent cation on [3H]LTD4 specific binding,[3],Identical results
[Cl-].[Na+] [NaCl],IC50,"[4]; monovalent cation, read-out: IC50 for inhibition of radiolabelling of the 45 kDa protein",~30 mM
same,IC50,"[2]; read-out: IC50 for inhibition of [125I]Azido-LTD4 specific binding, monovalent cation",~30 mM
same,IC50,"[3]; read-out: IC50 for inhibition of [3H]LTD4 specific binding, monovalent cation",~30 mM
[Ca+2].[Cl-].[Cl-] [CaCl2],concentration for optimal radiolabelling of the 45 kDa protein,[4],3 to 30 mM
same,effect of divalent cation on photolabelling of the 45 kDa protein,[4],enhanced
same,concentration for optimal [125I]Azido-LTD4 specific binding,[2],3 to 30 mM
same,effect of divalent cation on [125I]Azido-LTD4 specific binding,[2],higher concentrations proving inhibitory
same,concentration for optimal [3H]LTD4 specific binding,[3],3 to 30 mM
same,effect of divalent cation on [3H]LTD4 specific binding,[3],higher concentrations proving inhibitory
CCCCC/C=C\C[C@@H](O)/C=C/C=C/C=C\[C@@H](O)CCCC(=O)O [LTB4],concentration at which it competes for radiolabelling of the 45 kDa protein,[1]; LTB4,10 µM
same,"potency relative to LTD4 (fold less potent), [125I]Azido-LTD4 specific binding",[2]; vs LTD4,approximately 10000 fold
same,"potency relative to LTD4 (fold less potent), [3H]LTD4 specific binding",[3]; vs LTD4,approximately 10000 fold
CC(C)c1ccc2c(c1)c(SC(C)(C)C)c(CC(C)(C)C(=O)O)n2Cc1ccc(Cl)cc1 [MK-886],competition for radiolabelling of the 45 kDa protein,"[1]; MK-886, 0-10 μM",only able to compete for the selective radiolabelling of the 45 kDa protein at similarly high ligand concentrations
same,concentration producing inhibition of [125I]Azido-LTD4 specific binding,[2]; weak competing ligand,> 1 µM
same,concentration producing inhibition of [3H]LTD4 specific binding,[3]; weak competing ligand,> 1 µM
[Cl-].[K+] [KCl],inhibition of photolabelling of the 45 kDa protein,"[4]; KCl, 0-100 mM",did not significantly inhibit
same,inhibition of [125I]Azido-LTD4 specific binding,"[2]; KCl, 0-100 mM",did not significantly inhibit
same,inhibition of [3H]LTD4 specific binding,"[3]; KCl, 0-100 mM",did not significantly inhibit
Nc1nc2c(ncn2[C@@H]2O[C@H](COP(=O)(O)OP(=O)(O)OP(O)(O)=S)[C@@H](O)[C@H]2O)c(=O)[nH]1 [GTPγS],potency relative to ATPγS in inhibiting photolabelling of the 45 kDa protein (fold more potent),[4]; GTPγS vs ATPγS,100 fold
same,IC50,"[4]; nucleotide analogue, read-out: IC50 for inhibition of photolabelling of the 45 kDa protein",0.001 mM
same,inhibition of [125I]Azido-LTD4 specific binding,[2]; 10 μM GTPγS,complete inhibition
same,inhibition at 1000 µM,[3]; read-out: inhibition of [3H]LTD4 specific binding,60%
"COc1cc(C(=O)NS(=O)(=O)c2ccccc2C)ccc1Cc1cn(C)c2ccc(NC(=O)OC3CCCC3)cc12 [lCl 204,219]",IC50,[1],0.3 nM
CCCCC/C=C\C\C=C/C=C/C=C/[C@@H](SC[C@H](NC(=O)CCCCCNC(=O)c1cc(I)c(N=[N+]=[N-])cc1O)C(=O)NCC(=O)O)[C@@H](O)CCCC(=O)O [^127 lAzido-LTD4],Ki,[3],1.7 nM
same,Ki relative to LTD4 (fold higher),"[3]; vs Ki of LTD4, same assay",5 fold
Nc1ncnc2c1ncn2[C@@H]1O[C@H](COP(=O)(O)OP(=O)(O)OP(O)(O)=S)[C@@H](O)[C@H]1O [ATPγS],potency relative to GTPγS in inhibiting [125I]Azido-LTD4 specific binding (fold less potent),[2]; ATPγS vs GTPγS,100 fold
same,effect of nucleotide analogue on [3H]LTD4 specific binding,[3]; ATPγS,no detectable effect
CCCCC/C=C\C\C=C/C=C/C=C/[C@@H](SCC(N)C(=O)NCC(=O)O)[C@@H](O)CCCC(=O)O (some centres unmarked) [[^3 H]LTD4],association and dissociation profile compared with [125I]Azido-LTD4,[5],identical
same,maximum number of binding sites (Bmax),[6],2000 fmol/mg protein

# — US5310884A (Merck Frosst Canada, Inc., priority 1992, dated 1994)
